Measured values published in patent US10294202B2, “Pyrrolidinones as herbicides” (FMC Corporation, priority 2013, dated 2019).

Key:
[1] = test system: cupgrass, woolly; test: Test C pre-/postemergence herbicide test; format: in vivo, Eriochloa villosa
Source text: Seeds of plant species selected from blackgrass (Alopecurus myosuroides), ryegrass, Italian (Italian ryegrass, Lolium multiflorum), wheat (winter wheat, Triticum aestivum), galium (catchweed bedstraw, Galium aparine), corn (Zea mays), crabgrass, large (large crabgrass, Digitaria sanguinalis), foxtail, giant (giant foxtail, Setaria faberii), johnsongrass (Sorghum halepense), lambsquarters (Chenopodium album), morningglory (Ipomoea coccinea), nutsedge, yellow (yellow nutsedge, Cyperus esculentus), pigweed (Amaranthus retroflexus), ragweed (common ragweed, Ambrosia elatior), soybean (Glycine max), barnyardgrass (Echinochloa crus-galli), oilseed rape (Brassica napus), waterhemp (common waterhemp, Amaranthus rudis), kochia (Kochia scoparia), oat, wild (wild oat, Avena fatua), surinam grass (Brachiaria decumbens), foxtail, green (green foxtail, Setaria viridis), goosegrass (Eleusine indica), bromegrass, downy (downy bromegrass, Bromus tectorum), nightshade (eastern black nightshade, Solanum ptycanthum), cocklebur (common cocklebur, Xanthium strumarium), cupgrass, woolly (woolly cupgrass, Eriochloa villosa), bermudagrass (Cynodon dactylon), sunflower, (common oilseed sunflower, Helianthus annuus), Russian thistle (Salsola kali) and velvetleaf (Abutilon theophrasti) were planted into a blend of loam soil and sand and treated preemergence with test chemicals formulated in a non-phytotoxic solvent mixture which included a surfactant. At the same time, plants selected from these crop and weed species and also barley (winter barley, Hordeum vulgare), […]), chickweed (common chickweed, Stellaria media), deadnettle (henbit deadnettle, Lamium amplexicaule), and canarygrass (littleseed canarygrass, Phalaris minor) were planted in pots containing Redi-Earth® planting medium (Scotts Company, 14111 Scottslawn Road, Marysville, Ohio 43041) comprising spaghnum peat moss, vermiculite, wetting agent and starter nutrients and treated with postemergence applications of test chemicals formulated in the same manner. Plants ranged in height from 2 to 18 cm (1- to 4-leaf stage) for postemergence treatments. Treated plants and controls were maintained in a greenhouse for 13 to 15 days, after which time all species were compared to controls and visually evaluated. Plant response ratings, summarized in Table C, are based on a scale of 0 to 100 where 0 is no effect and 100 is complete control. A dash (-) response means no test result.

[2] = test system: sandbur; test: Test E preemergence herbicide test; format: in vivo, Cenchrus echinatus; parameters: key: 0 = no effect, 100 = complete control
Source text: Seeds of plant species selected from corn (Zea mays), soybean (Glycine max), velvetleaf (Abutilon theophrasti), lambsquarters (Chenopodium album), wild poinsettia (Euphorbia heterophylla), pigweed, palmer (palmer pigweed, Amaranthus palmeri), waterhemp (common waterhemp, Amaranthus rudis), surinam grass (Brachiaria decumbens), crabgrass, large (large crabgrass, Digitaria sanguinalis), crabgrass, Brazil (Brazilian crabgrass, Digitaria horizontalis), panicum, fall (fall panicum, Panicum dichotomiflorum), foxtail, giant (giant foxtail, Setaria faberii), foxtail, green (green foxtail, Setaria viridis), goosegrass (Eleusine indica), johnsongrass (Sorghum halepense), ragweed (common ragweed, Ambrosia elatior), barnyardgrass (Echinochloa crus-galli), sandbur (southern sandbur, Cenchrus echinatus), arrowleaf […] rhombifolia), ryegrass, Italian (Italian ryegrass, Lolium multiflorum), dayflower, VA (Virginia dayflower, Commelina virginica), field bindweed (Convolvulus arvensis), morningglory (Ipomoea coccinea), nightshade (eastern black nightshade, Solanum ptycanthum), kochia (Kochia scoparia), nutsedge, yellow (yellow nutsedge, Cyperus esculentus), cocklebur (common cocklebur, Xanthium strumarium), smartweed (ladysthumb smartweed, Polygonum Persicaria) and beggarticks (hairy beggarticks, Bidens pilosa), were planted into a silt loam soil and treated preemergence with test chemicals formulated in a non-phytotoxic solvent mixture which included a surfactant. Treated plants and controls were maintained in a greenhouse for 21 days, after which time all species were compared to controls and visually evaluated. Plant response ratings, summarized in Table E, are based on a scale of 0 to 100 where 0 is no effect and 100 is complete control. A dash (-) response means no test result.

[3] = test system: monochoria; test: Test F flood (paddy) test; format: in vivo, Monochoria vaginalis; details: 21 d, scale 0-100
How it was run: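 Compounds were applied directly to paddy water held 3 cm above silt loam soil, with rice and weeds at the 2.0–2.5-leaf stage, grown in a greenhouse at 30/27° C under a 16-h photoperiod. Visual ratings (0 no effect to 100 complete control) were made against untreated controls after 21 d.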

[4] = Preemergence, 62 g ai/ha, scale 0 to 100
[5] = Preemergence, 125 g ai/ha, scale 0 to 100 (0 no effect, 100 complete control)
[6] = Preemergence, 31 g ai/ha, scale 0 to 100 (0 no effect, 100 complete control)
[7] = Preemergence, 250 g ai/ha, scale 0 to 100 (0 no effect, 100 complete control)
[8] = Postemergence, 31 g ai/ha, scale 0 (no effect) to 100 (complete control)
[9] = Postemergence, 62 g ai/ha, scale 0 to 100 (0 no effect, 100 complete control)
[10] = Postemergence, 125 g ai/ha, scale 0 to 100 (0 no effect, 100 complete control)
[11] = Postemergence, 250 g ai/ha, scale 0 to 100 (0 no effect, 100 complete control)

Structure (SMILES)	Plant response rating, Cupgrass, Woolly [1, 4]	Plant response rating, Cupgrass, Woolly [1, 5]	Cupgrass, Woolly plant response rating [1, 6]	Plant response rating, Sandbur ([2]; 31 g ai/ha)	Plant response rating, Sandbur ([2]; 62 g ai/ha)	Plant response rating, Sandbur ([2]; 125 g ai/ha)	Plant response rating, Sandbur ([2]; 250 g ai/ha)	Plant response rating, Monochoria ([3]; 125 g ai/ha)	Plant response rating, Monochoria ([3]; 250 g ai/ha)	Plant response rating, Monochoria ([3]; 500 g ai/ha)	Plant response rating, Cupgrass, Woolly [1, 8]	Plant response rating, Cupgrass, Woolly [1, 9]	Plant response rating, Cupgrass, Woolly [1, 10]	other results
O=C1NCC(c2ccc(Cl)c(Cl)c2)C1C(=O)Nc1ccccc1F (racemic) [Compound 14]	0	0	0	0	0	0	30							Plant response rating, Cupgrass, Woolly [1, 7]: 80; Plant response rating, Sandbur ([2]; 16 g ai/ha): 0
O=C1NCC(c2ccc(F)c(F)c2)C1C(=O)Nc1cccc(F)c1F (racemic) [Compound 101]								100	100	100				Plant response rating, Monochoria ([3]; 64 g ai/ha): 75
O=C1NCC(c2ccc(C(F)(F)F)cc2)C1C(=O)Nc1cccc(F)c1F (racemic) [Compound 202]				35	70	85	80							
O=C1NCC(c2cccc(C(F)F)c2)C1C(=O)Nc1ccccc1F (racemic) [Compound 210]								65	85	100				
O=C1NCC(c2ccc(OC(F)F)cc2)C1C(=O)Nc1cccc(F)c1F (racemic) [Compound 350]				15	35	65	85							
O=C1NCCC1C(=O)N(c1ccc(F)c(F)c1)c1ccccc1F (stereo not drawn) [Compound 5, N-(3,4-difluorophenyl)-N-(2-fluorophenyl)-2-oxo-3-pyrrolidinecarboxamide]	85	90	80					75	75	75				Plant response rating, Cupgrass, Woolly [1, 7]: 95; Plant response rating, Monochoria ([3]; 1000 g ai/ha): 75; Plant response rating, Monochoria ([3]; 2000 g ai/ha): 75
O=C1NCC(c2ccc(F)c(F)c2)C1C(=O)Nc1cccc(F)c1F (stereo not drawn) [Compound 17, N-(2,3-difluorophenyl)-4-(3,4-difluorophenyl)-2-oxo-3-pyrrolidinecarboxamide]	85	90	80	0	50	65	95	90	90	95	0	0	0	Plant response rating, Cupgrass, Woolly [1, 11]: 0; Plant response rating, Cupgrass, Woolly [1, 7]: 95; Plant response rating, Sandbur ([2]; 16 g ai/ha): 0; Plant response rating, Monochoria ([3]; 1000 g ai/ha): 95; Plant response rating, Monochoria ([3]; 2000 g ai/ha): 95
O=C1NCC(c2cc(F)c(F)c(F)c2)C1C(=O)Nc1cccc(F)c1F (stereo not drawn) [Compound 48]	70	85	70								0	5	5	Plant response rating, Cupgrass, Woolly ([1]; Postemergence, 16 g ai/ha, scale 0 to 100 (0 no effect, 100 complete control)): 0; Plant response rating, Cupgrass, Woolly ([1]; Preemergence, 16 g ai/ha, scale 0 to 100): 25
O=C1NCC(c2cc(F)c(F)cc2F)C1C(=O)Nc1cccc(F)c1F (stereo not drawn) [Compound 50]											0	0	0	Plant response rating, Cupgrass, Woolly [1, 11]: 10
O=C1NCC(c2ccc(Cl)c(F)c2)C1C(=O)Nc1cccc(F)c1F (stereo not drawn) [Compound 52]	70	75	40								0	5	5	Plant response rating, Cupgrass, Woolly [1, 11]: 10; Plant response rating, Cupgrass, Woolly [1, 7]: 85
O=C1NCC(c2ccc(F)c(Cl)c2)C1C(=O)Nc1ccccc1F (stereo not drawn) [Compound 60]	75	75	55								0	0	5	
O=C1NCC(c2cccc(OC(F)(F)F)c2)C1C(=O)Nc1ccccc1F (stereo not drawn) [Compound 69]	85	85												Cupgrass, Woolly plant response rating ([1]; Preemergence, 31 g ai/ha, scale 0 to 100, 0 is no effect and 100 is complete control): 75; Plant response rating (scale of 0 to 100), Cupgrass, Woolly ([1]; Preemergence, 250 g ai/ha): 90
O=C1NCC(c2ccc(C(F)(F)F)cc2)C1C(=O)Nc1cccc(F)c1F (stereo not drawn) [Compound 80, N-(2,3-difluorophenyl)-2-oxo-4-[4-(trifluoromethyl)phenyl]-3-pyrrolidinecarboxamide]				30	50	65	70							Plant response rating, Sandbur ([2]; 16 g ai/ha): 20
O=C1NC[C@H](c2cccc(C(F)(F)F)c2)[C@H]1C(=O)Nc1ccccc1F [Compound 204, (3R,4S)—N-(2-fluorophenyl)-2-oxo-4-[3-(trifluoromethyl)phenyl]-3-pyrrolidinecarboxamide]				20	50	75	80	95	100	100				
O=C1NC[C@H](c2cccc(C(F)(F)F)c2)[C@H]1C(=O)Nc1cccc(F)c1F [Compound 206]				65	80	95	98	90	100	100				Plant response rating, Monochoria ([3]; 64 g ai/ha): 80
CN1CC(c2ccc(F)c(F)c2)C(C(=O)Nc2cccc(F)c2F)C1=O (stereo not drawn) [Compound 303]								100	100	100				Plant response rating, Monochoria ([3]; 62 g ai/ha): 100
